# Active and inactive are the calls of the source. No cut-off for these calls is given here.
# How the values were obtained:
# [1] = molecular target: Mitogen-activated protein kinase 3 (Homo sapiens) (UniProt P27361); assay: Inhibition of Erk1 Lys2 labeling site harbouring YIHSANVLHRDLKPSNLLINTTCDLK in human Huh-7 cell lysate at 1 uM by KiNativ Profiling analysis relative to control; assay type: subcellular
# [2] = Inhibition of p70S6K ATP labeling site in human Huh-7 cell lysate at 1 uM by KiNativ Profiling analysis relative to control; details: condition cancer
# [3] = molecular target: Mitogen-activated protein kinase 9 (Homo sapiens, UniProt P45984); assay: Inhibition of JNK2 Lys2 labeling site in human Huh-7 cells at 1 uM by KiNativ Profiling analysis relative to control; assay type: cell-based
# [4] = molecular target: Cyclin-dependent kinase 17 (Homo sapiens) (UniProt Q00537); assay: Inhibition of PCTAIRE2 Lys1 labeling site in human Huh-7 cells at 1 uM by KiNativ Profiling analysis relative to control; assay type: cell-based
# [5] = Inhibition of KHS1 Lys1 labeling site in human A-375 cells at 0.5 uM by KiNativ Profiling analysis relative to control; details: condition cancer
# [6] = molecular target: Wee1-like protein kinase (Homo sapiens) (UniProt P30291); assay: Inhibition of WEE1 (unknown origin) at 1 uM by Ambit Kinomescan binding assay relative to control
# [7] = molecular target: T1, Receptor-interacting serine/threonine-protein kinase 4 (Homo sapiens) (UniProt P57078); assay: Inhibition of RIPK4 (unknown origin) at 1 uM by Ambit Kinomescan binding assay relative to control
# T1 sequence (whole entry): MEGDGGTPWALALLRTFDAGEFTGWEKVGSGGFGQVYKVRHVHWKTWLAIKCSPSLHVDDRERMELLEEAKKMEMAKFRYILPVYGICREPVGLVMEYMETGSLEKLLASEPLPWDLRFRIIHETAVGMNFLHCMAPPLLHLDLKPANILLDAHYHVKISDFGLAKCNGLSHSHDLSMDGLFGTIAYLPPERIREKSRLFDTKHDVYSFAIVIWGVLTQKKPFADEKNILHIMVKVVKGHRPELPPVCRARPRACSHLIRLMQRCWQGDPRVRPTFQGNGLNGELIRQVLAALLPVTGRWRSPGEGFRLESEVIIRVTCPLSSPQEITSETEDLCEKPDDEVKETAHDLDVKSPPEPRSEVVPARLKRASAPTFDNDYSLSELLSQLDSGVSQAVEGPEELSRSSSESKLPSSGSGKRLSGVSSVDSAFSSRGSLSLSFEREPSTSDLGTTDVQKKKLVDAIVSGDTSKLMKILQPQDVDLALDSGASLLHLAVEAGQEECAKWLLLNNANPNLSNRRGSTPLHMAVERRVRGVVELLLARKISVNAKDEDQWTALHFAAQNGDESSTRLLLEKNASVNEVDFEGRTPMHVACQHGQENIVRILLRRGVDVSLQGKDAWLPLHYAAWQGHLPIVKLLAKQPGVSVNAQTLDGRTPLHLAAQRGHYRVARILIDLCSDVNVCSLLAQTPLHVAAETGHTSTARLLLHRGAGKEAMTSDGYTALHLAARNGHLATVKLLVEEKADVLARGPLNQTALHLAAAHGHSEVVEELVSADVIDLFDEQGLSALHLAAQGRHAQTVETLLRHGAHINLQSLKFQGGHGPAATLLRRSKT
# [8] = molecular target: cGMP-dependent protein kinase 2 (Homo sapiens) (UniProt Q13237); assay: Inhibition of PRKG2 (unknown origin) at 1 uM by Ambit Kinomescan binding assay relative to control
# [9] = molecular target: Protein kinase C epsilon type (Homo sapiens) (UniProt Q02156); assay: Inhibition of PRKCE (unknown origin) at 1 uM by Ambit Kinomescan binding assay relative to control; values are per cent of control
# [10] = molecular target: Serine/threonine-protein kinase Aurora (Homo sapiens) (UniProt Q96GD4+Q9UQB9+O14965); assay: Inhibition of AurA/B/C ATP labeling site in human Huh-7 cells at 10 uM by KiNativ Profiling analysis relative to control; assay type: cell-based
# [11] = system: Proto-oncogene tyrosine-protein kinase receptor Ret (Homo sapiens), P07949 [V804L]; assay: Inhibition of RET V804L mutant (unknown origin) at 10 uM by Ambit Kinomescan binding assay relative to control; values are per cent of control
# [12] = molecular target: Serine/threonine-protein kinase 35 (Homo sapiens) (UniProt Q8TDR2); assay: Inhibition of STK35 (unknown origin) at 10 uM by Ambit Kinomescan binding assay relative to control; values are per cent of control
# [13] = molecular target: Dual specificity protein kinase CLK3 (Homo sapiens) (UniProt P49761); assay: Inhibition of CLK3 (unknown origin) at 10 uM by Ambit Kinomescan binding assay
# [14] = molecular target: Serine/threonine-protein kinase WNK4 (Homo sapiens) (UniProt Q96J92); assay: Inhibition of Wnk4 Lys2 labeling site in human A-375 cells at 0.5 uM by KiNativ Profiling analysis relative to control; assay type: cell-based
# [15] = molecular target: Hepatocyte growth factor receptor (Homo sapiens) (UniProt P08581); assay: Inhibition of MET ACT labeling site in human A-375 cells at 0.5 uM by KiNativ Profiling analysis relative to control; assay type: cell-based
# [16] = molecular target: Serine/threonine-protein kinase MARK2 (Homo sapiens) (UniProt Q7KZI7); assay: Inhibition of MARK2 K1 labeling site harbouring HILTGKEVAVKIIDKTQLNSSSLQK in human Huh-7 cells at 10 uM by KiNativ Profiling analysis relative to control; assay type: cell-based
# [17] = molecular target: T2, Aurora kinase A (Homo sapiens) (UniProt O14965); assay: Inhibition of AurA K2 labeling site harbouring VIHRDIKPENLLLGSAGELK in human Huh-7 cells at 1 uM by KiNativ Profiling analysis relative to control; assay type: cell-based
# T2 sequence (whole entry): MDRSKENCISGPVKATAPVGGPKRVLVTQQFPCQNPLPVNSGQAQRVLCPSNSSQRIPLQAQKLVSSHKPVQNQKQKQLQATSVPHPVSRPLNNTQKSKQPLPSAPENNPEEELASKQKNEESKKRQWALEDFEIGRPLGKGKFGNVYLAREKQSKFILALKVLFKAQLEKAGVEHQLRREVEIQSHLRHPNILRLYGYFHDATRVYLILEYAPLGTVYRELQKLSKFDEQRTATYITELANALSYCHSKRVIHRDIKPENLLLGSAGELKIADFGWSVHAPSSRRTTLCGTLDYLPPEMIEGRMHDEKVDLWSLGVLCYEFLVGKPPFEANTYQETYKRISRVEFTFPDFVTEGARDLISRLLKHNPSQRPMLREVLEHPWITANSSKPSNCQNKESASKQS
# cGMP-dependent protein kinase 2 (Homo sapiens), sequence (Q13237 whole entry): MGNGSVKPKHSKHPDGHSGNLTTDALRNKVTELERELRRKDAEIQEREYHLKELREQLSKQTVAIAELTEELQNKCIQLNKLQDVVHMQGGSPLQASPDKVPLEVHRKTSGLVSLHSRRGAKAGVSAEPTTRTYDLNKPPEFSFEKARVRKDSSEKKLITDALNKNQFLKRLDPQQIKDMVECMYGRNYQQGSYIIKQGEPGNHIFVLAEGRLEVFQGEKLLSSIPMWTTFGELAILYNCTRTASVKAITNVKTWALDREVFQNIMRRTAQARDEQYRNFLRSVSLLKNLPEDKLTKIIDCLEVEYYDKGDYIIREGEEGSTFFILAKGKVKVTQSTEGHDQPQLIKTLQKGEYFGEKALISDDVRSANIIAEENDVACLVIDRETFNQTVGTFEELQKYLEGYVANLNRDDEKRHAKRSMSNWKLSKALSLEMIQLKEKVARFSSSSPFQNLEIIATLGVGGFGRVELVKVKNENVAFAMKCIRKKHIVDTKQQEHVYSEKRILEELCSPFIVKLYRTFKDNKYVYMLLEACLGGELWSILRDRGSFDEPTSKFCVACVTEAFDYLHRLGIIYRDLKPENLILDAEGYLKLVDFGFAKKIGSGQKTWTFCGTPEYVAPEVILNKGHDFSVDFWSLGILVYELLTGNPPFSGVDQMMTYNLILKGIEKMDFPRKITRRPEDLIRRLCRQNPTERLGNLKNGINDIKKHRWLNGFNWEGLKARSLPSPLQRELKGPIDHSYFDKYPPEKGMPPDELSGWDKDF
# Dual specificity protein kinase CLK3 (Homo sapiens), sequence (P49761 whole entry, looked up): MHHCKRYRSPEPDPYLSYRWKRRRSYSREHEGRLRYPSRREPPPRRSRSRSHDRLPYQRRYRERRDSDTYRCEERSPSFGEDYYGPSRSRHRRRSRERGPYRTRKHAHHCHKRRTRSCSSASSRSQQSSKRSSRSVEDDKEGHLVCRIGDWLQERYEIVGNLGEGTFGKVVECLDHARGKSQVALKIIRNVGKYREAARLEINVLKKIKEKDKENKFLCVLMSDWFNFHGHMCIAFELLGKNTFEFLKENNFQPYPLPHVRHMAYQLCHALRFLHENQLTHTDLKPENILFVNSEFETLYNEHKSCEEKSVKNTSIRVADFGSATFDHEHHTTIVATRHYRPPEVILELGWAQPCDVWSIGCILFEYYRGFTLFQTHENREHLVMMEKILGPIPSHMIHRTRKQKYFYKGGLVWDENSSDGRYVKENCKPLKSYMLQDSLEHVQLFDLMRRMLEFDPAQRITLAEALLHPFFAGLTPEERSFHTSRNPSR
# Mitogen-activated protein kinase 9, sequence (P45984 whole entry, looked up): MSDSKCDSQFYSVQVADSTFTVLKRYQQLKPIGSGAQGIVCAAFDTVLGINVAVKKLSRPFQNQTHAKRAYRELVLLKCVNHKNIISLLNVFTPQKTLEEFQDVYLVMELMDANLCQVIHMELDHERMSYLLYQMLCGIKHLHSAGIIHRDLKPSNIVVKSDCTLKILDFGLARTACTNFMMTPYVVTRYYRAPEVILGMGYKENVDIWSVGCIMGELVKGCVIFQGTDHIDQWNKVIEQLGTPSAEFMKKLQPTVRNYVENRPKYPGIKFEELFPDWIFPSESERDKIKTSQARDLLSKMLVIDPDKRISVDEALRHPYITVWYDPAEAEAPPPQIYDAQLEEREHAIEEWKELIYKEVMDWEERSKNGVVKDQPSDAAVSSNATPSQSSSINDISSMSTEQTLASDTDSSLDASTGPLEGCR
# Hepatocyte growth factor receptor (Homo sapiens), sequence (P08581 whole entry): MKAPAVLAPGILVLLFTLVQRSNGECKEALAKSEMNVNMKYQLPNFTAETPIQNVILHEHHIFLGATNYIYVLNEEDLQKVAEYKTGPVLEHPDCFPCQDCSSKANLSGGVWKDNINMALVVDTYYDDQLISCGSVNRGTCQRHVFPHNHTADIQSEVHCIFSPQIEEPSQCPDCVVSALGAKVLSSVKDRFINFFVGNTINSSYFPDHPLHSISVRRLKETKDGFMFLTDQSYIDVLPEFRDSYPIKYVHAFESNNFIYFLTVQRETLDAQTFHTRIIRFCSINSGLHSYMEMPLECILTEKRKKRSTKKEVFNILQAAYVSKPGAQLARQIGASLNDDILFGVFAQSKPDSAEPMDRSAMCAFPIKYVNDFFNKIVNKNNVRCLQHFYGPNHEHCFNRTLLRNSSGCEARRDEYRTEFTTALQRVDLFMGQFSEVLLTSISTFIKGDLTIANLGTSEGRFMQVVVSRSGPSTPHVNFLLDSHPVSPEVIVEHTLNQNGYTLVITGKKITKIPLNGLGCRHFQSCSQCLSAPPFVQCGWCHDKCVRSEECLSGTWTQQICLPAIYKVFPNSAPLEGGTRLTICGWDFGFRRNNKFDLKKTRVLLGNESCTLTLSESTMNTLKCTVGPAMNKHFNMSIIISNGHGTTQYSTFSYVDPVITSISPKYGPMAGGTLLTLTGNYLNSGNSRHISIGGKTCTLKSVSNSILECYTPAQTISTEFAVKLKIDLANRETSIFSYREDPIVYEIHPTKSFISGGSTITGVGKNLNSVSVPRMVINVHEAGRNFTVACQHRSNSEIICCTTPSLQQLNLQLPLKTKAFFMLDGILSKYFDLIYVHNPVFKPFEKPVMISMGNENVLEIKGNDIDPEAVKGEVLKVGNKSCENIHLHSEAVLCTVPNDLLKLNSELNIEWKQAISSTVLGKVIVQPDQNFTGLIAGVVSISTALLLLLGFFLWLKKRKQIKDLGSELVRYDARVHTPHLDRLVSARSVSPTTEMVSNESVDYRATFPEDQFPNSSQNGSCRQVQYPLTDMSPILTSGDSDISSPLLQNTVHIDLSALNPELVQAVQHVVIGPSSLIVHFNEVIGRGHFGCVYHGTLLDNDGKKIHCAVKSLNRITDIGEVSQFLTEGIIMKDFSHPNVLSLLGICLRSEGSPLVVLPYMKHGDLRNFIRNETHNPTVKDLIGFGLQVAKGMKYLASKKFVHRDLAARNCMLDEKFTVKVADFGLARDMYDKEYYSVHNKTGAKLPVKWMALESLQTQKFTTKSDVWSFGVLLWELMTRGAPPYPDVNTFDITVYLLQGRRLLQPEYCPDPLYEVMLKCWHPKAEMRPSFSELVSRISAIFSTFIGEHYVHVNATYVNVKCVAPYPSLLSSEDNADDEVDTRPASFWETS
# Serine/threonine-protein kinase Aurora (Homo sapiens), sequence (Q96GD4 whole entry, looked up, one chain of several): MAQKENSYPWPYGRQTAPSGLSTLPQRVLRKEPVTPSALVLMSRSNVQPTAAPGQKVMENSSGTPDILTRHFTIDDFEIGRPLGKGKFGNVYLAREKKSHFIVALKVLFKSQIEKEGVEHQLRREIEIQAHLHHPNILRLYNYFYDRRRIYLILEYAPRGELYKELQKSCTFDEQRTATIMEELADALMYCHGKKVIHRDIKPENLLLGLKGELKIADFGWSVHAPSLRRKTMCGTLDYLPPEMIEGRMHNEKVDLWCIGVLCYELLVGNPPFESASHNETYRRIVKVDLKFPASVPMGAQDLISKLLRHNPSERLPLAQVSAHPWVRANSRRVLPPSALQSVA
# Serine/threonine-protein kinase Aurora (Homo sapiens), sequence (Q9UQB9 whole entry, looked up, one chain of several): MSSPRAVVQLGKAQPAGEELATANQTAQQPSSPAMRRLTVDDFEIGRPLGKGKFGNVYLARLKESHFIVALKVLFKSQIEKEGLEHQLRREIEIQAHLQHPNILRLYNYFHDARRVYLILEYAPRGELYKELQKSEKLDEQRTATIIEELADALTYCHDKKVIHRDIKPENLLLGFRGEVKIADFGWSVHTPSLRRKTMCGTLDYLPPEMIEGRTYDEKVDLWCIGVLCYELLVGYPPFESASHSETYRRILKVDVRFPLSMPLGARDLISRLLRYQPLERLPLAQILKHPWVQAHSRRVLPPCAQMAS
# Serine/threonine-protein kinase WNK4 (Homo sapiens), sequence (Q96J92 whole entry): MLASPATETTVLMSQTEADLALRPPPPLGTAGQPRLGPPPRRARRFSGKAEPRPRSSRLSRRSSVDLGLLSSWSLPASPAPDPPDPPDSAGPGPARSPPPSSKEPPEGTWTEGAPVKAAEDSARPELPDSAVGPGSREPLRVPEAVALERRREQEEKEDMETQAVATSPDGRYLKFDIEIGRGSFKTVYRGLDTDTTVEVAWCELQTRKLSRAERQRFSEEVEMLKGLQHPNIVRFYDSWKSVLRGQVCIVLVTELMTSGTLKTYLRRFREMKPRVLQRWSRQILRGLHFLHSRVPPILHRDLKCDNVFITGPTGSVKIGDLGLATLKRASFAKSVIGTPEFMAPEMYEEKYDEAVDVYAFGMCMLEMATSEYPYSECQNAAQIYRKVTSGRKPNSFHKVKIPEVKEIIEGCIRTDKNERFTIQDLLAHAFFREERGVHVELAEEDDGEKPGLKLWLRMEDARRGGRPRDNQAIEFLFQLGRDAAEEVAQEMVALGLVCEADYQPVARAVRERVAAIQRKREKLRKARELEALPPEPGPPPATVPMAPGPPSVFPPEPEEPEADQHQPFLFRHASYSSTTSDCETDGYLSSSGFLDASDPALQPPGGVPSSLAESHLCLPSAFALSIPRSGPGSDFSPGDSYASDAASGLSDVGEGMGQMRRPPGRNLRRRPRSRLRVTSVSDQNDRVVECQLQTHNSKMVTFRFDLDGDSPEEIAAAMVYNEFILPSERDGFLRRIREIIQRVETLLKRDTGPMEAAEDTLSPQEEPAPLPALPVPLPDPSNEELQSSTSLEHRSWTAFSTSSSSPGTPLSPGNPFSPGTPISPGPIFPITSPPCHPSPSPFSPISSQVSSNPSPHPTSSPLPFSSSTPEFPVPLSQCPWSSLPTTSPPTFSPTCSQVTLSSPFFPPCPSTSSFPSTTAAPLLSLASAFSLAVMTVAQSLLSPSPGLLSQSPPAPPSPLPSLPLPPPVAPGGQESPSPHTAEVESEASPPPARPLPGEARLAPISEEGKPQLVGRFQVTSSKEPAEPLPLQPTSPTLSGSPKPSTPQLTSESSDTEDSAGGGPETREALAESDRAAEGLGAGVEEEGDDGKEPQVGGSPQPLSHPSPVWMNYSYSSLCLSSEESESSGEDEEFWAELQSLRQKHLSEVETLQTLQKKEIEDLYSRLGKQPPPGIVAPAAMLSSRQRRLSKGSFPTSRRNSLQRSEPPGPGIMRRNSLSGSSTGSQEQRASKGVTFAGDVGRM
smiles,measurement,setting,value
CNc1cc(Oc2cc(C(=O)Nc3cc(N4CCN(C)CC4)cc(C(F)(F)F)c3)ccc2C)ncn1,inhibition,[1],20.7%
same,inhibition at 1 µM,[2],2.8%
same,inhibition,[3],14.5%
same,inhibition,[4],12%
CCN1CCN(Cc2ccc(NC(=O)c3ccc(C)c(/C=C/c4cnc5[nH]ccc5c4OC)c3)cc2C(F)(F)F)CC1,inhibition at 0.5 µM,[5],53.7%
same,inhibition,[6],100%
same,inhibition,[7],100%
same,inhibition,[8],82%
same,residual activity,[9],62%
CCN1CCN(Cc2ccc(NC(=O)c3ccc(C)c(Oc4ccnc5[nH]ccc45)c3)cc2C(F)(F)F)CC1,inhibition,[10],4.1%
same,residual activity,[11],0.8%
same,residual activity,[12],3%
same,inhibition,[13],inactive
same,inhibition,[14],7.9%
same,inhibition,[15],14.4%
same,inhibition,[16],inactive
same,inhibition,[17],inactive
